Experimental data: US20230218714A1, “DIAGNOSTICS AND USE OF QUORUM SENSING MOLECULES IN MUSCLE WASTING” (Universiteit Gent, priority 2019, published 2023)
“Also recorded” adds a separate entry of the source. Where no end group is shown, it is not given here.

Legend:
C2C12 myoblasts [1] = test: MTT cell viability assay in C2C12 myoblasts; conditions: for Effect: viability (hit direction): screening at 1 μM, hit selection by MAD/quartile/SSMD/robust SSMD
Method: The mouse myoblast C2C12 cell line (ATCC, CRL-1772) was cultured at 37° C. in a 5% CO2 humidified incubator in Dulbecco's modified Eagle medium (DMEM; Thermo Fisher Scientific). For C2C12 cell proliferation, the medium was supplemented with 10% fetal bovine serum (FBS; Thermo Fisher Scientific), 100 units/ml penicillin, and 100 μg/ml streptomycin (1% Pen/Strep; Thermo Fisher Scientific). The proliferation medium was renewed each 2-3 days and confluency was kept below 80%. For differentiation of the C2C12 myoblasts into myotubes, proliferation medium was replaced by differentiation medium when cells reached 80% confluency.
Viability of QSM was assessed using the 3-(4,5-dimethylthiazol-2-yl)-2,5-diphenyltetrazolium bromide (MTT) assay. Briefly, C2C12 myoblasts were seeded in a 96-well plate (3×10^4 cells/well). 24 hours post-seeding, the wells were treated with QSM (1 μM), placebo or positive control (DMSO 2%) and incubated for 24 hours at 37° C. Next, 20 μL of MTT reagent (5 mg/mL; Sigma-Aldrich) was added to each well and the plates were returned to the incubator for 2.5 hours. After incubation, supernatant was removed from the wells and 150 μL of DMSO was added to release and dissolve the formazan crystals. Absorbance was measured at 570 nm using a microplate reader (Thermo Fisher).
The MTT assay is a widely validated and accepted viability assay for screening experiments. In this assay, the reduction of MTT into formazan, catalysed by living cell enzymes, is used as a marker of cell viability. If QSM are cytotoxic or cytostatic towards C2C12 cells, a decrease in MTT reduction is expected (viability less than 100%), while an increased C2C12 proliferation caused by QSM will result in an increased MTT reduction (viability more than 100%).
In a further set of experiments, the dose response effect of QSPs Q22 and Q184 was assessed on MTT reduction of C2C12 myotubes (tables 7.4 and 7.5).

C2C12 myoblasts [2] = test: Differentiation of C2C12 myoblasts into myotubes (LADD stain, ImageJ); assay type: cell-based, mouse; conditions: for differentiation capacity relative to the median of all samples: QSM 1 μM at d0 and d3, myotube formation at d6; for Effect: differentiation (hit direction): screening at 1 μM, myotube formation
Method: Differentiation medium consisted of DMEM supplemented with 2% horse serum (HS; Thermo Fisher Scientific) and 1% Pen/Strep. All experiments were done with C2C12 passage numbers below 30.
C2C12 myoblasts (1×10^4 cells/well) were seeded in 48-well plates and incubated until they reached 80% confluency, after which the proliferation medium was removed and replaced by differentiation medium (d0). The differentiation medium was renewed at d3. QSM (1 μM), placebo or positive controls (vitamin D3) were added to the cells together with the differentiation medium at d0 and d3. After 6 days of incubation (d6), myotubes were stained with the combined nuclear and cytoplasmatic LADD Multiple Stain (as described in R. McColl, M. Nkosi, C. Snyman, C. Niesler, Analysis and quantification of in vitro myoblast fusion using the LADD Multiple Stain, Biotechniques 61(6) (2016) 323-326). LADD Multiple Stain is a solution containing toluidine blue (VWR) and basic fuchsin (Fluka) in 30% (v/v) ethanol. The stained myotubes were assessed under a phase-contrast microscope equipped with a camera (Olympus CKX53) at a total magnification of 100×. Five different images were taken per well. The amount of myotube formation was automatically quantified using ImageJ software.
Mimicking the in vivo muscle physiology, C2C12 myoblasts are able to differentiate into myotubes when they are adjacent to each other and a differentiating extracellular medium is present. Muscle wasting diseases are characterized by a decreased myotube formation. To evaluate the effects of QSM on the differentiation capacities of C2C12 myoblasts, the C2C12 cells were treated in differentiation medium with QSM at d0 and d3, and evaluated the myotube formation at d6. At d6, the staining protocol of McColl et al. was used to visualize the myotubes (references see above). The differentiation capacity of all QSM was between 71% (Q013) and 145% (AI-2) relative to the median of all samples (FIG. 1).

[3] = system: GDF15 production by C2C12 myotubes; test: GDF15 production by C2C12 myotubes (sandwich ELISA), mitochondrial changes; assay type: cell-based, mouse; conditions: for GDF15 secretion, effect relative to median: QSM 1 μM, C2C12 myotubes; for Effect: GDF15 (hit direction): screening at 1 μM
Method: GDF15 levels were determined in the supernatants of C2C12 cells after QSM, placebo or positive control (oligomyin) treatment, using a sandwich ELISA (R&D Systems). A similar protocol as described for the IL-6 determination was used.
GDF15 is considered a useful biomarker for direct or indirect changes in mitochondrial function. Moreover, GDF15 is implicated in muscle wasting diseases like sarcopenia, chronic obstructive pulmonary disease cachexia and critical illness.

C. elegans = C. elegans swimming behaviour (muscle wasting/aging model); assay type: in vivo; design: key to Wave initiation rate / Asymmetry / Stretch / Curling / Travel speed / Brush stroke / Activity index: relative to placebo set to 1.0; conditions: DMSO positive control
Source text: The C. elegans model is a well-established aging model: they diminish in locomotory vigor as they age, a phenomenon that is attributed to a physical deterioration of muscle and synapses. QSPs were introduced in the medium of living C. elegans. As comparisons, a placebo experiment was used as negative control, while DMSO was used as positive control.
Using automatic, objective imaging software, different swimming behaviour variables associated with this decrease in locomotory vigor or muscle wasting were investigated. Wave initiation rate, travel speed, brush stroke and activity index do decrease with muscle wasting, while body wave number, asymmetry, curling and stretch do increase with muscle wasting, as described in Restif et al., Plos Computational Biology, 2014.
More in particular, the results in these tables show Q184-associated changes in three swimming parameters in wild-type adults at day 3 (Table 9) and day 12 (Table 10) (n=120-170 from 3 independent trials for each condition). Data presented are means±s.e.m (placebo set to 1.0).

[4] = system: IL-6 production by C2C12 myotubes; test: IL-6 production by C2C12 myotubes (sandwich ELISA); assay type: cell-based, mouse; conditions: for Effect: inflammation (IL-6 production, hit direction): screening at 1 μM
Method: C2C12 myoblasts (2.5×10^4 cells/well) were seeded in 96-well plates and incubated until they reached 80% confluency, after which the proliferation medium was removed and replaced by differentiation medium. After 6 days of incubation with daily renewed differentiation medium, the cells were treated with 1 μM of QSM, placebo or positive control (LPS) for 24 hours. IL-6 levels were determined in the supernatants using a sandwich ELISA (eBioscience), using IL-6 capture antibody, blocking solution, samples and standards, IL-6 detection antibody, avidin-horseradish peroxidase and substrate solution which were added sequentially, with washing steps in between. After stopping the reaction with H2SO4 solution, the absorbance was measured at 450 nm and 570 nm (correction wavelength) using a microplate reader (ThermoLab Systems). Concentrations were determined using the standard curves generated with known concentrations of IL-6.
Several pro-inflammatory cytokines are elevated in sepsis, cancer, ageing and other catabolic diseases. They are thought to trigger muscle wasting (partly) through NF-kB pathways. […] In these screening experiments, the effects of QSM on myotube IL-6 production were assessed using a sandwich ELISA.
In a further set of experiments, using similar methods as described for the screening experiments, a number of QSPs were tested for a dose response relation in C2C12 cells.

C2C12 cells = test: Co-treatment of C2C12 cells with QSP and ala-scan derivative, IL-6 response; assay type: cell-based, mouse; conditions: for effect on Q055 mediated IL-6 induction: Q055 75 μM plus derivative 90 μM
Source text: Means±SEM, n=6. * P<0.05; ** P<0.01, *** P<0.001; paired Student's t test.

[5] = day 3, placebo set to 1.0, Q184 at 1 μM
[6] = day 12, placebo set to 1.0, Q184 at 1 μM

Compound: CCCC(O)CC(=O)N[C@H]1CCOC1=O (some centres unmarked) [3-OH-C6-HSL]
- Effect: viability (hit direction) (C2C12 myoblasts [1]): increasing hit; also recorded: ↑ viability

Compound: C[C@]12OC[C@H](O)[C@@]1(O)O[B-](O)(O)O2 [AI-2]
- Effect: viability (hit direction) (C2C12 myoblasts [1]): increasing both C2C12 viability and GDF15 production
- differentiation capacity relative to the median of all samples (C2C12 myoblasts [2]): 145%
- Effect: differentiation (hit direction) (C2C12 myoblasts [2]): increased myotube formation; also recorded: ↑ differentiation
- GDF15 secretion, effect relative to median [3]: 216%
- Effect: GDF15 (hit direction) [3]: increased GDF15 production

Compound: CCCCCC(=O)N[C@H]1CCOC1=O [C6-HSL]
- Effect: GDF15 (hit direction) [3]: increased GDF15 production

Compound: C[S+](C)[O-] [DMSO, dimethylsulfoxide, reference compound]
- Activity index (C. elegans; [5]): 0.60
- Asymmetry (C. elegans; [5]): 3.11
- Body wave number (C. elegans; [5]): 2.04
- Brush stroke (C. elegans; [5]): 0.68
- Curling (C. elegans; [5]): 1.55
- Stretch (C. elegans; [5]): 1.10
- Travel speed (C. elegans; [5]): 0.85
- Wave initiation rate (C. elegans; [5]): 0.58
- Activity index (C. elegans; [6]): 0.31
- Asymmetry (C. elegans; [6]): 2.50
- Body wave number (C. elegans; [6]): 2.59
- Brush stroke (C. elegans; [6]): 0.48
- Curling (C. elegans; [6]): 0.08
- Stretch (C. elegans; [6]): 0.91
- Travel speed (C. elegans; [6]): 0.49
- Wave initiation rate (C. elegans; [6]): 0.39

Compound: AGTKPQGKPASNLVECVFSLFKKCN [Q011]
- Effect: viability (hit direction) (C2C12 myoblasts [1]): decreasing viability hits
- Effect: GDF15 (hit direction) [3]: increased GDF15 production

Compound: AIFILAS [Q013]
- differentiation capacity relative to the median of all samples (C2C12 myoblasts [2]): 71%

Compound: AKDEH [Q015]
- Effect: viability (hit direction) (C2C12 myoblasts [1]): decreasing viability hits
- Effect: GDF15 (hit direction) [3]: increased GDF15 production

Compound: ALILTLVS [Q017]
- Effect: viability (hit direction) (C2C12 myoblasts [1]): decreasing viability hits

Compound: ARNQT [Q018]
- Effect: viability (hit direction) (C2C12 myoblasts [1]): decreasing viability hits

Compound: DLRGVPNPWGWIFGR [Q030]
- Effect: viability (hit direction) (C2C12 myoblasts [1]): decreasing viability hits

Compound: DLRNIFLKIKFKKK [Q031]
- Effect: viability (hit direction) (C2C12 myoblasts [1]): decreasing viability hits

Compound: DSVCASYF [Q040]
- Effect: viability (hit direction) (C2C12 myoblasts [1]): decreasing viability hits

Compound: ERPVG [Q052]
- Effect: viability (hit direction) (C2C12 myoblasts [1]): increasing hits; also recorded: increasing viability hit
- Effect: inflammation (IL-6 production, hit direction) [4]: decreased the IL-6 production; also recorded: ↓ inflammation

Compound: ESRLPKIRFDFIFPRKK [Q054]
- relative IL-6 production ([4]; QSM 1 μM, 24 h, relative to median of all QSM): 51%
- Effect: inflammation (IL-6 production, hit direction) [4]: decreased the IL-6 production; also recorded: ↓ inflammation

Compound: ESRVSRIIADFLFQRKK (Synthetic QSP055-A9)
- effect on Q055 mediated IL-6 induction (C2C12 cells): antagonistic effect

Compound: FLVMFLSG [Q093]
- GDF15 secretion, effect relative to median [3]: 137%
- Effect: GDF15 (hit direction) [3]: increased GDF15 production

Compound: GKAEF [Q099]
- GDF15 secretion, effect relative to median [3]: 80%
- Effect: GDF15 (hit direction) [3]: decreased the GDF15 production

Compound: GLWEDILYSLNIIKHNNTKGLHHPIQL [Q101]
- Effect: viability (hit direction) (C2C12 myoblasts [1]): increasing hits; also recorded: ↑ viability

Compound: GSLSTFFALFNRSFTQALGK (Synthetic Q176-A9)
- effect on Q176 mediated IL-6 induction (C2C12 cells; Q176 50 μM plus derivative 60 μM): inhibiting the Q176 mediated IL-6 induction

Compound: LFSLVLAG [Q132]
- Effect: viability (hit direction) (C2C12 myoblasts [1]): decreasing viability hits

Compound: LPFEF [Q134]
- Effect: viability (hit direction) (C2C12 myoblasts [1]): decreasing viability hits

Compound: MAGNSSNFIHKIKQIFTHR [Q138]
- Effect: viability (hit direction) (C2C12 myoblasts [1]): increasing hits; also recorded: ↑ viability

Compound: MKAEH [Q140]
- Effect: viability (hit direction) (C2C12 myoblasts [1]): increasing hits; also recorded: ↑ viability

Compound: NNWNN [Q019]
- Effect: differentiation (hit direction) (C2C12 myoblasts [2]): increased myotube formation; also recorded: ↑ differentiation

Compound: QNSPNIFGQWM [Q097]
- Effect: viability (hit direction) (C2C12 myoblasts [1]): decreasing viability hits

Compound: SDLPFEH [Q164]
- Effect: viability (hit direction) (C2C12 myoblasts [1]): increasing hits; also recorded: ↑ viability

Compound: SRNAT [Q192, SRNAT]
- viability relative to the median of all samples (MTT) (C2C12 myoblasts [1]; QSM 1 μM, 24 h, C2C12 myoblasts, n=2): 120%
- Effect: viability (hit direction) (C2C12 myoblasts [1]): strong increasing hit; also recorded: ↑ viability

Compound: SRVSAIILDFLFQRKK (Synthetic Q055-A6)
- effect on Q055 mediated IL-6 induction (C2C12 cells): inhibited the Q055 mediated IL-6 induction

Compound: YSPWTNF [Q007]
- Effect: inflammation (IL-6 production, hit direction) [4]: increased IL-6 production; also recorded: ↑ inflammation

Compound: YSTCDFIM [Q148]
- GDF15 secretion, effect relative to median [3]: 80%
